According to publication PMC4281097 (Journal of Medicinal Chemistry, 2014):

Experiments:
EWS-FLI1 = biological target: T1, EWS-FLI1 (Homo sapiens, UniProt Q01543+Q01844); conditions: binding to EWS-FLI1; cited from earlier work
T1 sequence (Q01844 1-264): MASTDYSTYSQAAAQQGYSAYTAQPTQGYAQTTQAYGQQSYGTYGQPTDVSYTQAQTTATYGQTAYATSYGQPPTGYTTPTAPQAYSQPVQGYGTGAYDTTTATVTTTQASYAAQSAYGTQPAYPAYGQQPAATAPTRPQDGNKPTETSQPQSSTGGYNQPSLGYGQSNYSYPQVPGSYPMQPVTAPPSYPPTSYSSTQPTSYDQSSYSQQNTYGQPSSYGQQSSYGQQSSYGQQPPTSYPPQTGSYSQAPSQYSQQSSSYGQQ
T1 sequence (Q01543 220-452): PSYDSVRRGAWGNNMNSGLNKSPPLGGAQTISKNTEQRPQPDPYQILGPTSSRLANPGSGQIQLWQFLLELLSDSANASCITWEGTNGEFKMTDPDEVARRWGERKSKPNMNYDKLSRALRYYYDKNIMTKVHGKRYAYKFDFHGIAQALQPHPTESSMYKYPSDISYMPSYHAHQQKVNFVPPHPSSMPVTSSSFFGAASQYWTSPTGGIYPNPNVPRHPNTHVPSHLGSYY

TC32 cells = conditions: TC32 cells; cited from earlier work
COS7 cells = test: Cell proliferation assay; format: cell-based, monkey; conditions: WST, 48 h
ES orthotopic xenografts = conditions: cited from earlier work
ES cells = conditions: read-out: GI50 in ES cells; several ES cells; cited from earlier work

COc1ccc(C(=O)CC2(O)C(=O)Nc3c(Cl)ccc(Cl)c32)cc1 (centres unmarked) [compound 2, YK-4-279]
Kd (EWS-FLI1): 9480 nM
GI50 in TC32 cells (TC32 cells): 900 nM
Cytotoxicity / effect on COS7 cell proliferation in words (COS7 cells): negligible effect
Growth of ES orthotopic xenografts in words (ES orthotopic xenografts): reduces the growth
GI50 (ES cells): 500 to 2000 nM
